Assay [1] relates to Staphylococcus aureus. Nature of the assay: Antimicrobial activity against Staphylococcus aureus IFO 3060 measured after 24 hrs by microdilution method. To be noted: IFO 3060, 24 h. It is filed as functional.
In assay [2] the test system is Bacillus subtilis. Nature of the assay: Antimicrobial activity against Bacillus subtilis IFO 3007 measured after 24 hrs by microdilution method. The assay is classed as functional. To be noted: IFO 3007, 24 h.
Assay [3] deals with Escherichia coli. Put plainly: Antimicrobial activity against Escherichia coli IFO 3301 at 200 ug/disc measured after 24 hrs by agar disc-diffusion method. It is filed as functional. Conditions: IFO 3301, 24 h, read-out: DIZ. (A growth-free zone around the sample is the usual read-out of agar diffusion tests.)
The next assay has as its system Candida albicans. Put plainly: Antimicrobial activity against Candida albicans IFO 0583 at 200 ug/disc measured after 48 hrs by agar disc-diffusion method. It is filed as functional. Conditions: IFO 0583, 48 h, read-out: DIZ.
For a further assay, the system named is Pseudomonas aeruginosa. Nature of the assay: Antimicrobial activity against Pseudomonas aeruginosa IFO 3448 at 200 ug/disc measured after 24 hrs by agar disc-diffusion method. The assay is classed as functional. Conditions: IFO 3448, 24 h, read-out: DIZ.
Assay [4] relates to Escherichia coli. Put plainly: microbe, parasite or virus in culture. Conditions: IFO 3301, 24 h.
Description: Antimicrobial activity against Escherichia coli IFO 3301 measured after 24 hrs by microdilution method
The test system of assay [5] is Bacillus subtilis. Nature of the assay: Antimicrobial activity against Bacillus subtilis IFO 3007 at 200 ug/disc measured after 24 hrs by agar disc-diffusion method. It is filed as functional. Conditions: IFO 3007, 24 h, read-out: DIZ.
The subject of assay [6] is Staphylococcus aureus. Put plainly: Antimicrobial activity against Staphylococcus aureus IFO 3060 at 200 ug/disc measured after 24 hrs by agar disc-diffusion method. It is filed as functional. Conditions: IFO 3060, 24 h, read-out: DIZ.

Converted amounts (≈) assume the structure as drawn.

In the case of `COc1cc(CSc2nc3ccc(Cl)cc3c(=O)n2-c2ccccc2)cc(OC)c1OC`, the MIC stood at 8 µg/mL (≈ 17.1 µM) in the assay with Staphylococcus aureus [1], 4 µg/mL (≈ 8.53 µM) in the assay with Bacillus subtilis [2] and 8 µg/mL (≈ 17.1 µM) against Escherichia coli [4]. The zone of inhibition at 200 µg/disc amounted to 16 mm in the assay with Escherichia coli [3]; 8 mm in the assay on Candida albicans; 8 mm with Pseudomonas aeruginosa; 20 mm in the assay on Bacillus subtilis [5]; 17 mm in the assay with Staphylococcus aureus [6].

As to `COc1cc2nc(SCc3cc(OC)c(OC)c(OC)c3)n(Cc3ccccc3)c(=O)c2cc1OC`, the figures for the MIC against Staphylococcus aureus [1], in the assay on Bacillus subtilis [2] and with Escherichia coli [4] were 4 µg/mL (≈ 7.86 µM), 4 µg/mL (≈ 7.86 µM) and 8 µg/mL (≈ 15.7 µM), respectively. The zone of inhibition at 200 µg/disc with Escherichia coli [3] was found to be 16 mm; in the assay on Candida albicans it was 8 mm; in the assay with Pseudomonas aeruginosa it was 8 mm; in the assay with Bacillus subtilis [5] it was 22 mm; with Staphylococcus aureus [6], 20 mm.
